Results from US11000537B2, “Composition comprising novel ginsenoside” (AMOREPACIFIC CORPORATION, priority 2018, dated 2021).

Assays:
[1] = target: T1, pancreatic α-amylase (Sus scrofa, UniProt P00690); test: α-amylase enzyme activity inhibition; format: biochemical
T1 construct: purchased Sigma
T1 sequence (P00690 16-511): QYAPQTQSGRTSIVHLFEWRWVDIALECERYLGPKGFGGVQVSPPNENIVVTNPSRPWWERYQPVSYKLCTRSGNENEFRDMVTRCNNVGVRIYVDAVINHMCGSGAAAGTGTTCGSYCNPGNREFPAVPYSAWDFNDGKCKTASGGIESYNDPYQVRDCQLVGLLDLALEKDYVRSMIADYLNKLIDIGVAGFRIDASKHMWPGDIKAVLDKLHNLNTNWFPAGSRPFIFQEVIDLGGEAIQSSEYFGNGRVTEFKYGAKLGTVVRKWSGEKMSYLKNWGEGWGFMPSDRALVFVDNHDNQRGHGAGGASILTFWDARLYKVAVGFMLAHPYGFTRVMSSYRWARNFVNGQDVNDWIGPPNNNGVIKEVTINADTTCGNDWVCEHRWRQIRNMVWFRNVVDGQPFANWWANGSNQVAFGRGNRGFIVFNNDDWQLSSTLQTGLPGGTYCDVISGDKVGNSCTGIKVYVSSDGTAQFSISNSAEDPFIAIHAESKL
Protocol: As a polysaccharide degrading enzyme, pancreatic α-amylase and α-glucosidase were purchased from Sigma, and the enzyme activity of novel ginsenoside GS #10, which is an example of the present disclosure, isolated from Ginseng seed extract and ginsenosides GS #01-GS #06, which are comparative examples of the present disclosure, was measured. In order to measure α-amylase activity, enzyme solution was prepared by dissolving BSA 0.1 g, 0.01 g/L NaN3, α-amylase 0.2857 g in 50 mL of PBS (phosphate buffered saline), and 5 mM of p-nitrophenyl-α-D-maltopentoglycoside was dissolved in another PBS to make a substrate solution. 0.1 mL of the test substance was added to 0.5 mL of the enzyme solution, and then the initial absorbance was measured at 405 nm. After adding 0.5 mL of the substrate solution and reacting it for 5 minutes, the absorbance was measured again. The change in enzyme activity was measured by the difference in absorbance between the two reactions. The method for measuring α-glucosidase activity is the same as the method for measuring α-amylase activity, and differs only in α-glucosidase and substrate (p-nitrophenyl-α-D-glucopyranoside). As a positive control to observe the inhibition of enzyme activity, acarbose, which is an α-amylase inhibitor and α-glucosidase inhibitor derived from wheat seed sold by Sigma, was used.

[2] = tested on: adipocyte cell 3T3-L1; test: fat accumulation in adipocytes (Oil-red O staining); format: cell-based
Protocol: The adipocyte cell 3T3-L1 purchased from the International Center for Biological Resources (ATCC) were placed in Dulbecco's Modified Eagle's Medium (Sigma) to which 10% fetal bovine serum (Hyclone) and 1% penicillin/streptomycin (Sigma) were added, and cultured in a 5% CO2 incubator. In order to differentiate preadipocytes into adipocytes, the cells were filled in a culture plate and cultured. After 48 hours, the cells were replaced with Dulbecco's modified eagle medium (DMEM) to which 10% of fetal bovine serum (Hyclone), 0.5 mM of 3-isobutyl-1-methylxanthine (Sigma), 1 μM of dexamethasone (Sigma), 5 μg/ml of insulin (Sigma), 1% of penicillin/streptomycin (Sigma) were added and further cultured for 48 hours. […] As a control to confirm the effect of inhibiting adipocyte differentiation, 20 μM of bisphenol A diglycidyl ether (BADGE) (Sigma), a PPARγ (Peroxisome proliferator-activated receptor gamma) antagonist, was used. Thereafter, the cells were further cultured for 10 days while being replaced with a medium containing 10% FBS and 5 μg/ml insulin and 1% penicillin/streptomycin at two-day intervals to induce adipocyte differentiation.
Differentiated adipocytes treated with each of the seven types of ginsenosides were fixed with formaldehyde solution (Sigma), stained with Oil-red O staining solution (Sigma), and then dissolved with isopropanol (Sigma), and then the amount of the stained fat was quantified by measuring at 490 nm absorbance.

[3] = tested on: PPARγ (Peroxisome proliferator-activated receptor gamma); test: PPARγ adipocyte marker gene expression (qPCR); format: cell-based
Protocol: (§1) The adipocyte cell 3T3-L1 purchased from the International Center for Biological Resources (ATCC) were placed in Dulbecco's Modified Eagle's Medium (Sigma) to which 10% fetal bovine serum (Hyclone) and 1% penicillin/streptomycin (Sigma) were added, and cultured in a 5% CO2 incubator. In order to differentiate preadipocytes into adipocytes, the cells were filled in a culture plate and cultured. After 48 hours, the cells were replaced with Dulbecco's modified eagle medium (DMEM) to which 10% of fetal bovine serum (Hyclone), 0.5 mM of 3-isobutyl-1-methylxanthine (Sigma), 1 μM of dexamethasone (Sigma), 5 μg/ml of insulin (Sigma), 1% of penicillin/streptomycin (Sigma) were added and further cultured for 48 hours. During 48 hours of culture, seven types of ginsenoside reagents (GS #01-GS #06, GS #10) extracted from Ginseng seeds were treated at 10 μM each to affect adipocyte differentiation. […]
(§2) After the differentiation of adipocytes in the same manner as above, the expressions of PPARγ (Peroxisome proliferator-activated receptor gamma), aP2 (Adipocyte protein 2) and CD36 were observed as adipocyte marker genes. […] Bio-Rad's CFX96 real-time quantitative PCR (qPCR) instrument was used to quantify the expression levels of each gene. […]

[4] = tested on: CD36; test: CD36 adipocyte marker gene expression (qPCR); format: cell-based
Protocol: as §1, §2

With CC1(C)C(=O)CC[C@@]2(C)C1[C@@H](O[C@H]1OC(CO)[C@H](O)C(O)C1O[C@H]1OC(CO)[C@H](O)C(O)C1O)C[C@]1(C)C2C[C@@H](O)C2C([C@]3(C)CC[C@H](C(C)(C)O)O3)CC[C@]21C (stereo partly drawn) [GS #10, (20S,24R)-6-O-β-D-glucopyranosyl(1→2)-β-D-glucopyranoside-dammar-3-one-20,24-epoxy-6a,12b,25-triol] the “α-amylase activity inhibitory effect” value ([1]; 1, 10 μM, compared with ginsenosides Rg1, Rg3, Rb1, FIG. 14) was “much superior”, the “α-amylase activity inhibitory effect” value ([1]; Test Example 1, FIG. 11, ginseng seed ginsenosides compared) was “most excellent α-amylase activity inhibitory effect” and the “fat accumulation inhibitory effect in adipocytes” value ([2]; 1 μM and 10 μM, compared with Rg1, Rg3, Rb1, FIG. 38) was “far superior in adipocyte differentiation inhibition and fat accumulation inhibitory effect”. The “fat accumulation inhibitory effect in adipocytes” value ([2]; 10 μM during 48 hours of differentiation, FIG. 34) was “most excellent fat accumulation inhibitory effect”, the “adipocyte differentiation inhibition, PPARγ gene expression” value ([3]; 1 μM and 10 μM, compared with Rg1, Rg3, Rb1, FIG. 39) was “far superior in adipocyte differentiation inhibition” and the “adipocyte differentiation inhibition, PPARγ gene expression” value ([3]; 10 μM, FIG. 35) was “more effective in inhibiting the adipocyte differentiation”. For the same compound, the “adipocyte differentiation inhibition, CD36 gene expression” value ([4]; 1 μM and 10 μM, compared with Rg1, Rg3, Rb1, FIG. 41) was “far superior in adipocyte differentiation inhibition” and the “adipocyte differentiation inhibition, CD36 gene expression” value ([4]; 10 μM, FIG. 37) was “more effective in inhibiting the adipocyte differentiation”.
